# In paper PMC4431184, “The Use of the LanthaScreen TR-FRET CAR Coactivator Assay in the Characterization of Constitutive Androstane Receptor (CAR) Inverse Agonists” (Sensors (Basel, Switzerland), 2015):
# Assays:
# [1] = biological target: T1, human CAR ligand-binding domain (LBD) (Homo sapiens, UniProt Q14994); assay: LanthaScreen TR-FRET CAR Coactivator Assay; format: biochemical; conditions: for IC50: IC50 (95% Conf. Interv.), TR-FRET CAR Assay; for fold activation compared to vehicle control: CITCO 10 μM
# T1 sequence (Q14994 109-352 limits assumed): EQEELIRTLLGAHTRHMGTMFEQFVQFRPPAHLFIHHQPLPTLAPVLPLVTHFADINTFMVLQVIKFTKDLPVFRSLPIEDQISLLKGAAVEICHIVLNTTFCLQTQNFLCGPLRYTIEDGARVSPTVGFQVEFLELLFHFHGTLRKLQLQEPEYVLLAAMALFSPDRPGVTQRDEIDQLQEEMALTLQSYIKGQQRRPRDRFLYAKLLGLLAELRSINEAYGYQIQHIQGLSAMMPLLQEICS
# From the text: The LanthaScreen^TMTR-FRET CAR Coactivator Binding Assay (Cat. No. PV4836, now produced by Thermo) was used with slight modifications of the manufacturer’s protocol. The assay uses two fluorophores: a terbium-labeled anti-GST antibody interacting with glutathione-S-transferase (GST) tagged human CAR ligand-binding domain (LBD) and a fluorescein-labeled PGC1α coactivator peptide (Figure 1). […] Thus, this energy transfer is detected by an increase in the fluorescence emission of the acceptor (fluorescein) and a decrease in the fluorescence emission of the donor (terbium). To quantify the process, TR-FRET is expressed as a ratio of the intensities of the acceptor and donor fluorophores. […] Incubation time was optimized from 1 to 4 h at room temperature and protected from light. […] According to the recommended protocol of the manufacturer, CAR-LBD is added to the solution of test compounds, followed by the addition of a mixture of the fluorescein-coactivator peptide and terbium-labeled anti-GST antibody. In the study we also tested to determine if the order of adding the constituents in the mixture may have an influence on the sensitivity and reproducibility of the assay. […] The terbium was excited using a 340-nm excitation filter with a 30-nm bandwidth and fluorescein was excited with the first emission peak of terbium centered at 495 nm. Energy transfer to fluorescein emission (520 nm) is then measured in the silent region between the first two terbium emission peaks centered at 490 and 545 nm (see Graphical Abstract). […] Delay time was set at 100 μs and integration time 200 μs. Gains set to 100 were the use constant in all the experiments. The 520 nm/495 nm TR-FRET ratio was then calculated. […] The values above the baseline represent activation of CAR LBD-PGC1α interaction and agonistic activity of the tested ligand. The experiments were performed at least three times in quadruplicates. Data are presented as the means and S.D. from three independent experiments (n = 3). […] Dose-response curves were generated by plotting the emission TR-FRET ratio vs. the log of a ligand (in μM). To determine the half maximal inhibitory concentration (IC50) value, the data were fitted using an equation for a sigmoidal dose response inhibition (with a varying slope) using the software GraphPad™ PRISM version 6.05. Z-factors were calculated using the method of Zhang et al..
# human CAR LBD = biological target: T2, human CAR LBD (Homo sapiens, UniProt Q14994); assay: CAR LBD assembly assay (GAL4/VP16 luciferase reporter in HepG2 cells); format: cell-based; conditions: CITCO 1 µM, up to highest studied concentration 30 µM
# T2 construct: encoding C (151–349 aa, helices 3–12, pCAR-C/VP16); N (103–150 aa, helix 1, pCAR-N/GAL4) terminal parts of human CAR LBD; expressed in transfected cells; host or cells: HepG2
# T2 sequence (Q14994 103-150 isoform Q14994-2): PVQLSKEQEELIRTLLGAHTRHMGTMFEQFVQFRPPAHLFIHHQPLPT
# T2 sequence (Q14994 151-348 isoform Q14994-2): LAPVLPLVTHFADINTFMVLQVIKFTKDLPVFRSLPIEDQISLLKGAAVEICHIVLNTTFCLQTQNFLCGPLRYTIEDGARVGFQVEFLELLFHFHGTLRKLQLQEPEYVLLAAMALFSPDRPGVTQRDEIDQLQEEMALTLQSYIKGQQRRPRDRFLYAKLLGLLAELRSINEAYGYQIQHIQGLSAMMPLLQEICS
# Experimental: The CAR LBD assembly assay was performed according to the protocol we described in our latest report. The CAR LBD assembly assay is based on two hybrid expression constructs encoding C (151–349 aa, helices 3–12, pCAR-C/VP16) and N (103–150 aa, helix 1, pCAR-N/GAL4) terminal parts of human CAR LBD that are co-transfected together with the pGL5-luc luciferase gene reporter plasmid (Promega) containing GAL4 binding sites. When the CAR LBD interacts with a ligand (both agonist and antagonist), connection of the helix 1 to CAR LBD helices 3–12 promotes firefly luciferase activation. Thus, the assay monitor interaction of CAR LBD with ligands rather than its activation or deactivation.
structure (smiles),measurement,setting,value
"C[C@]12CC[C@@H](O)C[C@@H]1CC[C@@H]1[C@@H]2CC[C@]2(C)C=CC[C@@H]12 [Androstenol, 5α-androst-16-en-3α-ol]",IC50,"[1]; CITCO 1 μM, antagonist mode, with agonist CITCO 1 μM",313 µM
same,IC50,"[1]; No CITCO, inverse agonist mode, reduction of CAR constitutive activity",0.35 µM
same,concentration at which consistent antagonistic effect on CITCO was observed,[1]; with CITCO 1 μM,30 µM
same,inhibition of CITCO-mediated CAR LBD interaction with PGC1α,"[1]; with CITCO 1 μM, serial dilution",did not show any significant inhibition
same,inhibition of the activity of CITCO,human CAR LBD,weakest inhibition
same,inhibition of the activity of CITCO,human CAR LBD; listed as androstenol,weaker inhibition
"Clc1ccc(-c2nc3sccn3c2C=NOCc2ccc(Cl)c(Cl)c2)cc1 [CITCO, 6-(4-Chlorophenyl)imidazo[2,1-b][1,3]thiazole-5-carbaldehyde O-(3,4-dichlorobenzyl)oxime]",fold activation compared to vehicle control,[1]; modified order: CAR-LBD and fluorescein-/terbium-labeled reagents before the agonist (Figure 2B),1.94 fold
same,fold activation compared to vehicle control,"[1]; modified order: ligand, fluorescein-PGC1α and Tb antibody, then CAR-LBD (Figure 2A)",2.26 fold
same,fold activation compared to vehicle control,[1]; standard procedure (Figure 2C),2.56 fold
"Clc1ccccc1C(c1ccccc1)(c1ccccc1)n1ccnc1 [Clotrimazole, 1-[(2-Chlorophenyl)diphenylmethyl]-1H-imidazole]",effect on interaction of CAR LBD with the PGC1α coactivator,"[1]; 10 μM, no CITCO",almost completely inhibited
same,effect on constitutive activity of CAR,[1]; 30 μM,abolish the constitutive activity of CAR
same,effect on CITCO-mediated CAR LBD interaction with PGC1α,"[1]; 30 μM, with CITCO",completely abrogated the effect of CITCO
same,effect on constitutive activity of CAR,[1]; concentrations of 20 and 30 μM,abolished constitutive activity of CAR
same,concentration with significant inhibition of CAR LBD constitutive activity,[1]; no CITCO,0.01 µM
